Results as given in the kinase profiling compilation of Christmann-Franck et al. (2016).

Tests used:
Experiment in all cases: KINOMEscan competition binding
Conditions in all cases: compound 1.0 µM
AAK1 (human) = AAK1 (human) (UniProt Q2M2I8)
BMPR2 (human) = BMPR2 (human) (UniProt Q13873)
CDC2L2 (human) = CDC2L2 (human) (UniProt Q9UQ88)
CDC42BPA (human) = CDC42BPA (human) (UniProt Q5VT25)
CDK11B (human) = CDK11B (human) (UniProt P21127)
CDK2 (human) = CDK2 (human) (UniProt P24941)
CDK8 (human) = CDK8 (human) (UniProt P49336)
CPK1 (P.falciparum) = tested on: CPK1 (P.falciparum)
CaMK1 (human) = CaMK1 (human) (UniProt Q14012)
DYRK1A (human) = DYRK1A (human) (UniProt Q13627)
[1] = tested on: EGFR (human), P00533 [746-750 del]
EPHB4 (human) = EPHB4 (human) (UniProt P54760)
FLT3 (human) = FLT3 (human) (UniProt P36888)
[2] = tested on: FLT3 (human), P36888 [R834Q]
GRK7 (human) = GRK7 (human) (UniProt Q8WTQ7)
GSK3A (human) = GSK3A (human) (UniProt P49840)
INSRR (human) = INSRR (human) (UniProt P14616)
IRAK1 (human) = IRAK1 (human) (UniProt P51617)
ITK (human) = ITK (human) (UniProt Q08881)
[3] = tested on: KIT (human), P10721 [D816V]
MAP2K3 (human) = MAP2K3 (human) (UniProt P46734)
MAP3K11 (human) = MAP3K11 (human) (UniProt Q16584)
MARK1 (human) = MARK1 (human) (UniProt Q9P0L2)
MTOR (human) = MTOR (human) (UniProt P42345)
NEK11 (human) = NEK11 (human) (UniProt Q8NG66)
NEK2 (human) = NEK2 (human) (UniProt P51955)
NEK7 (human) = NEK7 (human) (UniProt Q8TDX7)
NTRK1 (human) = NTRK1 (human) (UniProt P04629)
PAK6 (human) = PAK6 (human) (UniProt Q9NQU5)
PAK7 (human) = PAK7 (human) (UniProt Q9P286)
PI4KB (human) = PI4KB (human) (UniProt Q9UBF8)
PIP5K1A (human) = PIP5K1A (human) (UniProt Q99755)
PRKACA (human) = PRKACA (human) (UniProt P17612)
RAF1 (human) = RAF1 (human) (UniProt P04049)
RIOK3 (human) = RIOK3 (human) (UniProt O14730)
RPS6KA4 KD2 (human) = RPS6KA4 KD2 (human) (UniProt O75676)
SIK1 (human) = SIK1 (human) (UniProt P57059)
TAOK1 (human) = TAOK1 (human) (UniProt Q7L7X3)
TAOK2 (human) = TAOK2 (human) (UniProt Q9UL54)
TEC (human) = TEC (human) (UniProt P42680)
TNK2 (human) = TNK2 (human) (UniProt Q07912)
TXK (human) = TXK (human) (UniProt P42681)
[4] = molecular target: TYK2 JH2 pseudokinase (human) (UniProt P29597)

Chain of TAOK2 (human) (Q9UL54 whole entry, looked up): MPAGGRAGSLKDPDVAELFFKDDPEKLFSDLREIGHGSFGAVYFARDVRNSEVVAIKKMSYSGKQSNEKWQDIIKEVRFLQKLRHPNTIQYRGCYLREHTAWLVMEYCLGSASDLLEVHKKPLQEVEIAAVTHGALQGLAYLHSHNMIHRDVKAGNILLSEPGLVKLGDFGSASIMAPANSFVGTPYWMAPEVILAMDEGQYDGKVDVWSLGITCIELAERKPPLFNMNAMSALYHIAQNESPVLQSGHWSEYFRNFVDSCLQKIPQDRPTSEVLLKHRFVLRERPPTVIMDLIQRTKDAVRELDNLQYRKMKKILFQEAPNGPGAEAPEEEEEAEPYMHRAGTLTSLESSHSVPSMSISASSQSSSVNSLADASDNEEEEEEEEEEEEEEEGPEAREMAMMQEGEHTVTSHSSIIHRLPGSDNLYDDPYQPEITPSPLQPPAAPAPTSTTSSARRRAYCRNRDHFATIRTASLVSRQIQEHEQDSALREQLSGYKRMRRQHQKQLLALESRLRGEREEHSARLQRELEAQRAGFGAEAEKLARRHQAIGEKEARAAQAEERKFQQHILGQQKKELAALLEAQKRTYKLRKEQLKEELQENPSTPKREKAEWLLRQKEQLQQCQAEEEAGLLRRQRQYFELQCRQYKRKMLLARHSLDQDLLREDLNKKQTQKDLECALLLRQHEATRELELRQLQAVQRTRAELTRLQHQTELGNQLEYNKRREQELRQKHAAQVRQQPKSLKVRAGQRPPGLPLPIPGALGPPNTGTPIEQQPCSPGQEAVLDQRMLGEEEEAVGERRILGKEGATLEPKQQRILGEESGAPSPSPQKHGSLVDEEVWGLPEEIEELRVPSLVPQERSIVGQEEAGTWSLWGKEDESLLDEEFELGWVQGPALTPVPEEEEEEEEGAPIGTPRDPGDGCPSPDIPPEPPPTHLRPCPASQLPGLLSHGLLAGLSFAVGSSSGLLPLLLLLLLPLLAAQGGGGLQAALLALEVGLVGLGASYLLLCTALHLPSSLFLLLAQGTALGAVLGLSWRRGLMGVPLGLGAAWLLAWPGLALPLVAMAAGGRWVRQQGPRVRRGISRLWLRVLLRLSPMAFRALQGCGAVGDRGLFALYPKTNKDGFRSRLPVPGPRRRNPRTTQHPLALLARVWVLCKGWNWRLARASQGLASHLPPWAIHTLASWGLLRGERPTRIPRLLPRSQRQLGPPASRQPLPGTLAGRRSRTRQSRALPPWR
Chain of RPS6KA4 KD2 (human) (O75676 whole entry, looked up): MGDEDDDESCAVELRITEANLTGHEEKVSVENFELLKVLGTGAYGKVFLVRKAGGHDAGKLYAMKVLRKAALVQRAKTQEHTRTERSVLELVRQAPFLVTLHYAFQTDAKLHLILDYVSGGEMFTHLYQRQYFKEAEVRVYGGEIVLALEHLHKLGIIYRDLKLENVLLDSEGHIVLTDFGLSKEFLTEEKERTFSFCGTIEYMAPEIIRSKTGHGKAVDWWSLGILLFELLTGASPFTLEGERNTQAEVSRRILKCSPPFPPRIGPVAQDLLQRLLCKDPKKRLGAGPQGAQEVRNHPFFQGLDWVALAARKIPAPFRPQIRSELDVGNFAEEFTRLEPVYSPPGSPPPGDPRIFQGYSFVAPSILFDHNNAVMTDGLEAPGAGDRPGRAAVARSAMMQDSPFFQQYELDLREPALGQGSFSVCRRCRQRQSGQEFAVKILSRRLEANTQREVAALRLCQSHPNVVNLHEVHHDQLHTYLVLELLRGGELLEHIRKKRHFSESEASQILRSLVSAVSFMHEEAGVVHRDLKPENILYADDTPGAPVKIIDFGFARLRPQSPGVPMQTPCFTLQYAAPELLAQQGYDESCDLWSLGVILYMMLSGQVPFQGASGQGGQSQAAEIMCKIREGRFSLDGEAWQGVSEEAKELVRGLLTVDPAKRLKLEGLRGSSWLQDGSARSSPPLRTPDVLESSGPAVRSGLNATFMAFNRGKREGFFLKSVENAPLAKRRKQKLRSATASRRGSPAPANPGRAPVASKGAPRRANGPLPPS
Chain of NTRK1 (human) (P04629 whole entry, looked up): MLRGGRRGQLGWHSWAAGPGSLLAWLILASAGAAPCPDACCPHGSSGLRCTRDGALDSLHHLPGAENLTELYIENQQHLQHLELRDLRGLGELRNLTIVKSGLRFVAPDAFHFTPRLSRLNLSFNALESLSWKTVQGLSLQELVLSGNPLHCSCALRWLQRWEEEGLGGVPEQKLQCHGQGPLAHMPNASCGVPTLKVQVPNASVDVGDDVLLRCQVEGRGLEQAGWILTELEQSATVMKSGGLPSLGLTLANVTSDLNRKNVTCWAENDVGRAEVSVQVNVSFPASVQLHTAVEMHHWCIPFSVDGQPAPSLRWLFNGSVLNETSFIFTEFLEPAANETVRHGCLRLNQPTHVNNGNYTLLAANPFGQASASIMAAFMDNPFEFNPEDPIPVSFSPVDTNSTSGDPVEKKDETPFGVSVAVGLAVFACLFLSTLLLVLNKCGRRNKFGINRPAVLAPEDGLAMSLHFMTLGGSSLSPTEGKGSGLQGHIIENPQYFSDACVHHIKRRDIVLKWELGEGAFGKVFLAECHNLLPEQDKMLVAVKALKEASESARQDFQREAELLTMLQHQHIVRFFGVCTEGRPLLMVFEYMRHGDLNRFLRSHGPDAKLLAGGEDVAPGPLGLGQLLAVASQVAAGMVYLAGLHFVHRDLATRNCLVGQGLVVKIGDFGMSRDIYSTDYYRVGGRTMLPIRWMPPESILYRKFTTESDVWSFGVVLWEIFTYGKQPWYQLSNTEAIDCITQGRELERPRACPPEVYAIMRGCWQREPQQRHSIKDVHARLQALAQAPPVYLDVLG
Chain of EGFR (human), P00533 [746-750 del] (P00533 whole entry, looked up, stated change not applied): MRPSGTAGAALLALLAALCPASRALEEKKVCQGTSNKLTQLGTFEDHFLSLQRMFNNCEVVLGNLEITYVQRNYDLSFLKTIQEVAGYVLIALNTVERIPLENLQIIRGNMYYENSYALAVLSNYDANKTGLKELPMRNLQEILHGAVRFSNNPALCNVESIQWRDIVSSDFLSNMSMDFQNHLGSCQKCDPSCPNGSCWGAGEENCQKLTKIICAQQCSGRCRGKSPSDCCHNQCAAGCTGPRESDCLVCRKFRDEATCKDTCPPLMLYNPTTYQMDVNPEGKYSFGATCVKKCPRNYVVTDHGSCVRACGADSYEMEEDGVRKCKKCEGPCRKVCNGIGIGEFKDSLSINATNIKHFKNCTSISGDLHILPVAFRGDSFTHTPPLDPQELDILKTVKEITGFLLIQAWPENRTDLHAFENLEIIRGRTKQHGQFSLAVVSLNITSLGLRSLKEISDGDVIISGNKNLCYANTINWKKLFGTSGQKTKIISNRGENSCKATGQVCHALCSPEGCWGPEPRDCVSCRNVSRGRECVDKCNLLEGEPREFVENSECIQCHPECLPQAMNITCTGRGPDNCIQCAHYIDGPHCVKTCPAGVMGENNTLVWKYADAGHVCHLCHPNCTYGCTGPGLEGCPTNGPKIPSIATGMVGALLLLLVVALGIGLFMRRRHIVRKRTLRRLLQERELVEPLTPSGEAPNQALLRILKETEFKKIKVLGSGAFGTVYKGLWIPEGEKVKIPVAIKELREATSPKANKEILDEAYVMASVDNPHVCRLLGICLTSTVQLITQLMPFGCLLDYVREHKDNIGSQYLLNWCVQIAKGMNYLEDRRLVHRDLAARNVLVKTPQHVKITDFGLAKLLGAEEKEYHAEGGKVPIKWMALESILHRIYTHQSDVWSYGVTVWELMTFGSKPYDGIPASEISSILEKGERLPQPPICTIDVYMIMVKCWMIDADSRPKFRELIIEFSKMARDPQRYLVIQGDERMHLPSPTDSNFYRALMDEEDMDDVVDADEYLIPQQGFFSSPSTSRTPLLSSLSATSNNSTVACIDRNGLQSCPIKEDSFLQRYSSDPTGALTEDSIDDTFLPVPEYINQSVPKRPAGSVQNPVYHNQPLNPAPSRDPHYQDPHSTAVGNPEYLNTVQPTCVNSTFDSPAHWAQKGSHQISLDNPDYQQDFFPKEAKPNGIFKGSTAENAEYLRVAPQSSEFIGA
Chain of CDC2L2 (human) (Q9UQ88 whole entry, looked up): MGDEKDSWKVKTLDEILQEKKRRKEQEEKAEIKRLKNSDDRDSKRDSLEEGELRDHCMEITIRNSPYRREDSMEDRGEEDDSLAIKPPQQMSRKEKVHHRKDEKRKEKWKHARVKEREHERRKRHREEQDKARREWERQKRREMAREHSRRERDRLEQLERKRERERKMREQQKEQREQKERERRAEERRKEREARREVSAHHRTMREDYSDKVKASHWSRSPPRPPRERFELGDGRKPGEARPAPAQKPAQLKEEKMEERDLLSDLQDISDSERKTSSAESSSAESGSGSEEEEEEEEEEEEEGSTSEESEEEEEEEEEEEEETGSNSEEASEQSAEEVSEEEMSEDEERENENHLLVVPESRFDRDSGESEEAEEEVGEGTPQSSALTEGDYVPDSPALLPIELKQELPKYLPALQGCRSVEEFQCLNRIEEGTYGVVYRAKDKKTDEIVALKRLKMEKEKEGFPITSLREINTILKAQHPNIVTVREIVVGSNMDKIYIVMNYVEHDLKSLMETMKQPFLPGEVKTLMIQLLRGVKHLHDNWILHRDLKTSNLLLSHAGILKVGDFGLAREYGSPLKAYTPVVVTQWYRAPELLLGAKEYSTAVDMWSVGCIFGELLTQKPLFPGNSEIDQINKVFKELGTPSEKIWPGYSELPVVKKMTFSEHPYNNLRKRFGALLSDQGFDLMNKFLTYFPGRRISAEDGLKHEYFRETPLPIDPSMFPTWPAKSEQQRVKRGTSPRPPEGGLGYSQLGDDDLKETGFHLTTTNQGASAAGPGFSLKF
Chain of NEK7 (human) (Q8TDX7 whole entry, looked up): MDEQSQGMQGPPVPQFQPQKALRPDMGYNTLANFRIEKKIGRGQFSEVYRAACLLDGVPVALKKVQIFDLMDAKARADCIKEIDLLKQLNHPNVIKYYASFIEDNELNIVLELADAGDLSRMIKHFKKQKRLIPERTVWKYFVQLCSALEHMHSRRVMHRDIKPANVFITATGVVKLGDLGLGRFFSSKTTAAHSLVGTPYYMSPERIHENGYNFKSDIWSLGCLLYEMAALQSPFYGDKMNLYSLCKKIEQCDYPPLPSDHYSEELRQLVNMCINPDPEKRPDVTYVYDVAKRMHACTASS

Question: Which kinase still bound, per cent of control (AAK1 (human)) does the source give for `COCCNCCCn1c(C(=O)CF)c(-c2ccc(C)cc2)c2c(N)ncnc21` here?
Answer: 95%

Question: What about the kinase still bound, per cent of control (BMPR2 (human)) of the same molecule?
Answer: 72%

Question: What about the kinase still bound, per cent of control (CDC2L2 (human)) of the same molecule?
Answer: 100%

Question: What about the kinase still bound, per cent of control (CDC42BPA (human)) of the same molecule?
Answer: 92%

Question: What about the kinase still bound, per cent of control (CDK11B (human)) of the same molecule?
Answer: 100%

Question: And the kinase still bound, per cent of control (CDK2 (human))?
Answer: 83%

Question: And the kinase still bound, per cent of control (CDK8 (human))?
Answer: 100%

Question: What about the kinase still bound, per cent of control (CPK1 (P.falciparum)) of the same molecule?
Answer: 89%

Question: And the kinase still bound, per cent of control (CaMK1 (human))?
Answer: 100%

Question: What about the kinase still bound, per cent of control (DYRK1A (human)) of the same molecule?
Answer: 100%

Question: What about the kinase still bound, per cent of control [1] of the same molecule?
Answer: 100%

Question: What about the kinase still bound, per cent of control (EPHB4 (human)) of the same molecule?
Answer: 89%

Question: And the kinase still bound, per cent of control (FLT3 (human))?
Answer: 71%

Question: What about the kinase still bound, per cent of control [2] of the same molecule?
Answer: 96%

Question: What about the kinase still bound, per cent of control (GRK7 (human)) of the same molecule?
Answer: 100%

Question: And the kinase still bound, per cent of control (GSK3A (human))?
Answer: 100%

Question: What about the kinase still bound, per cent of control (INSRR (human)) of the same molecule?
Answer: 100%

Question: And the kinase still bound, per cent of control (IRAK1 (human))?
Answer: 93%

Question: What about the kinase still bound, per cent of control (ITK (human)) of the same molecule?
Answer: 100%

Question: And the kinase still bound, per cent of control [3]?
Answer: 96%

Question: What about the kinase still bound, per cent of control (MAP2K3 (human)) of the same molecule?
Answer: 97%

Question: What about the kinase still bound, per cent of control (MAP3K11 (human)) of the same molecule?
Answer: 100%

Question: And the kinase still bound, per cent of control (MARK1 (human))?
Answer: 90%

Question: And the kinase still bound, per cent of control (MTOR (human))?
Answer: 90%

Question: And the kinase still bound, per cent of control (NEK11 (human))?
Answer: 63%

Question: What about the kinase still bound, per cent of control (NEK2 (human)) of the same molecule?
Answer: 98%

Question: And the kinase still bound, per cent of control (NEK7 (human))?
Answer: 100%

Question: What about the kinase still bound, per cent of control (NTRK1 (human)) of the same molecule?
Answer: 82%

Question: What about the kinase still bound, per cent of control (PAK6 (human)) of the same molecule?
Answer: 93%

Question: And the kinase still bound, per cent of control (PAK7 (human))?
Answer: 82%

Question: And the kinase still bound, per cent of control (PI4KB (human))?
Answer: 100%

Question: And the kinase still bound, per cent of control (PIP5K1A (human))?
Answer: 100%

Question: And the kinase still bound, per cent of control (PRKACA (human))?
Answer: 100%

Question: What about the kinase still bound, per cent of control (RAF1 (human)) of the same molecule?
Answer: 99%

Question: What about the kinase still bound, per cent of control (RIOK3 (human)) of the same molecule?
Answer: 68%

Question: What about the kinase still bound, per cent of control (RPS6KA4 KD2 (human)) of the same molecule?
Answer: 100%

Question: What about the kinase still bound, per cent of control (SIK1 (human)) of the same molecule?
Answer: 98%

Question: And the kinase still bound, per cent of control (TAOK1 (human))?
Answer: 100%

Question: And the kinase still bound, per cent of control (TAOK2 (human))?
Answer: 100%

Question: And the kinase still bound, per cent of control (TEC (human))?
Answer: 100%

Question: What about the kinase still bound, per cent of control (TNK2 (human)) of the same molecule?
Answer: 100%

Question: What about the kinase still bound, per cent of control (TXK (human)) of the same molecule?
Answer: 100%

Question: And the kinase still bound, per cent of control [4]?
Answer: 100%
